Results taken from patent publication US11566007B2, “Ras inhibitors” (Revolution Medicines, Inc., priority 2019, dated 2023).

Tests used:
NCI-H358 (K-Ras G12C) = experiment: CellTiter-Glo cell viability assay, NCI-H358; type: cell-based, human; details: Homo sapiens, NCI-H358, 120 h, NCI-H358, 5-day treatment; class symbols; read-out: Additional H358 Cell Viability assay data (K-Ras G12C, IC50)
How it was run: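 Four-parameter logistic fits were applied to luminescence data normalized against DMSO-treated wells. Readings were taken on day 5 following direct compound addition, after roughly 30 minutes at room temperature.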

K-Ras G12C = K-Ras G12C (Homo sapiens (Human), UniProt P01116+P62937, G12C); experiment: Ras-Raf (BRAF RBD) disruption / FRET / MOA assay, KRAS G12C; type: biochemical; details: KRAS G12C; Ras-Raf disruption/FRET/MOA assay; read-out: IC50* KRAS G12C FRET data
How it was run: (§1)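 Ternary complex formation (Ras–compound–cyclophilin A) displacing BRAF RBD, monitored by TR-FRET. Three hours at 25° C with compound (top 30 μM final), then 1.5 h with the labelled antibodies. Lower ratio than DMSO indicates disruption; IC50 reported.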

KRAS G12S = KRAS G12S (Homo sapiens (Human), UniProt P01116+P62937, G12S); experiment: Ras-Raf (BRAF RBD) disruption / FRET / MOA assay, KRAS G12S; type: biochemical; details: Ras-Raf disruption/FRET/MOA assay; class symbols; read-out: KRAS G12S FRET data IC50
How it was run: as §1

KRAS G12D = KRAS G12D (Homo sapiens (Human), UniProt P01116+P62937, G12D); experiment: Ras-Raf (BRAF RBD) disruption / FRET / MOA assay, KRAS G12D; type: biochemical; details: Ras-Raf disruption/FRET/MOA assay; class symbols; read-out: KRAS G12D FRET data IC50
How it was run: as §1

KRAS WT = KRAS WT (Homo sapiens (Human), UniProt P01116+P62937); experiment: Ras-Raf (BRAF RBD) disruption / FRET / MOA assay, KRAS WT; type: biochemical; details: read-out: IC50* KRAS WT FRET data
How it was run: as §1

NRAS Q61R = NRAS Q61R (Homo sapiens (Human), UniProt P01111+P62937, Q61R); experiment: Ras-Raf (BRAF RBD) disruption / FRET / MOA assay, NRAS Q61R; type: biochemical; details: NRAS Q61R; Ras-Raf disruption/FRET/MOA assay; read-out: IC50* NRAS Q61R FRET data
How it was run: (§2)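 Compounds were tested as a 10-point 3-fold dilution series from 30 μM final for their ability to drive ternary complex formation between nucleotide-loaded Ras and cyclophilin A, displacing the BRAF RBD. After 3 h at 25° C., anti-His Eu-W1024 (10 nM) and anti-GST allophycocyanin (50 nM) were added for 1.5 h. A TR-FRET ratio decrease versus DMSO gave IC50.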

NRAS Q61K = NRAS Q61K (Homo sapiens (Human), UniProt P01111+P62937, Q61K); experiment: Ras-Raf (BRAF RBD) disruption / FRET / MOA assay, NRAS Q61K; type: biochemical; details: NRAS Q61K; Ras-Raf disruption/FRET/MOA assay; read-out: IC50* NRAS Q61K FRET data
How it was run: as §2

KRAS G12D, sequence (P01116-2 other isoform, or with tags, fused parts or gaps G12D): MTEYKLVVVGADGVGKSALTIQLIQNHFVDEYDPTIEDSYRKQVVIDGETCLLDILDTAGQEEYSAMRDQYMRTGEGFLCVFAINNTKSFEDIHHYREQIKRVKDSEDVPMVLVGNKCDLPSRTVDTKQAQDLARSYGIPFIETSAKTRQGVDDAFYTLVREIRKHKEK
KRAS G12D, sequence (P62937 whole entry): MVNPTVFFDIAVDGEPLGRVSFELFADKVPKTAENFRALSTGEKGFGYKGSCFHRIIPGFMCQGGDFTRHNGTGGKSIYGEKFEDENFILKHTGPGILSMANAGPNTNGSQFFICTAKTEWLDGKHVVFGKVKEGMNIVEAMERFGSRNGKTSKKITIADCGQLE
NRAS Q61R, sequence (P01111 whole entry Q61R): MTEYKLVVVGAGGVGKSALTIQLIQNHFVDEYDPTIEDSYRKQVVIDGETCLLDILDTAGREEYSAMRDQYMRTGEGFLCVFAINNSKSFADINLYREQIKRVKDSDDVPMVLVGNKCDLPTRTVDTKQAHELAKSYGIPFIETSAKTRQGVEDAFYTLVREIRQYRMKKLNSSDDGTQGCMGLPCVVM
NRAS Q61R, sequence (P62937 whole entry): as the sequence (P62937 whole entry) above
KRAS WT, sequence (P01116-2 other isoform, or with tags, fused parts or gaps): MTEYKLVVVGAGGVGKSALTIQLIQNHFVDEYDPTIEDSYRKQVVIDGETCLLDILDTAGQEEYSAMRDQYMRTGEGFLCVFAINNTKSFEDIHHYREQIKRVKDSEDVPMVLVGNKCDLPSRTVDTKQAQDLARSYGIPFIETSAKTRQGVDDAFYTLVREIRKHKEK
KRAS WT, sequence (P62937 whole entry): as the sequence (P62937 whole entry) above
KRAS G12S, sequence (P01116-2 other isoform, or with tags, fused parts or gaps G12S): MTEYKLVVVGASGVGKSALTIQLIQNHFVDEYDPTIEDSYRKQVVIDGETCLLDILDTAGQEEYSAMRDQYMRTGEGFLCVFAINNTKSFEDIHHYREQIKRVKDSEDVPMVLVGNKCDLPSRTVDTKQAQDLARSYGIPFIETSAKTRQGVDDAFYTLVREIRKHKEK
KRAS G12S, sequence (P62937 whole entry): as the sequence (P62937 whole entry) above
NRAS Q61K, sequence (P01111 whole entry Q61K): as the sequence (P01111 whole entry Q61R) above, with R61K counted along it
NRAS Q61K, sequence (P62937 whole entry): as the sequence (P62937 whole entry) above
K-Ras G12C, sequence (P01116-2 other isoform, or with tags, fused parts or gaps G12C): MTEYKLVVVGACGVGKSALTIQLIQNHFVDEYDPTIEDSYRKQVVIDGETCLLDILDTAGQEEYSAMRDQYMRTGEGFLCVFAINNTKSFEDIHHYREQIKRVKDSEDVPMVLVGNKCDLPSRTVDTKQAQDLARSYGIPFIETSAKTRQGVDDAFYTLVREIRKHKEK
K-Ras G12C, sequence (P62937 whole entry): as the sequence (P62937 whole entry) above

SMILES | IC50 (NCI-H358 (K-Ras G12C)) [µM] | IC50 (K-Ras G12C) [µM] | IC50 (KRAS G12S) [µM] | IC50 (KRAS G12D) [µM] | IC50 (KRAS WT) [µM] | IC50 (NRAS Q61R) [µM] | IC50 (NRAS Q61K) [µM]
C=CC(=O)N1C[C@H](C)N(C(=O)N(C)[C@H](C(=O)N[C@H]2Cc3nc(cs3)-c3ccc4c(c3)c(c(-c3cccnc3[C@H](C)OC)n4CC)CC(C)(C)COC(=O)[C@@H]3CCCN(N3)C2=O)C(C)C)[C@@H](C)C1 (atropisomer, axis not shown) [Example A386] | 0.01 to 0.1 | 0.01 to 0.1 | 0.1 to 1 | 0.1 to 1 | 0.01 to 0.1 | 0.01 to 0.1 | 0.01 to 0.1
C=CC(=O)N1C[C@@H](C)N(C(=O)N(C)[C@H](C(=O)N[C@H]2Cc3nc(cs3)-c3ccc4c(c3)c(c(-c3cccnc3[C@H](C)OC)n4CC)CC(C)(C)COC(=O)[C@@H]3CCCN(N3)C2=O)C(C)C)[C@@H](C)C1 (atropisomer, axis not shown) [Example A387] | 0.01 to 0.1 | 0.01 to 0.1 | 0.1 to 1 | 0.1 to 1 | 0.01 to 0.1 | 0.01 to 0.1 | 0.01 to 0.1
C=CC(=O)N1CC2(CCN(C(=O)N(C)[C@H](C(=O)N[C@H]3Cc4nc(cs4)-c4ccc5c(c4)c(c(-c4cccnc4[C@H](C)OC)n5CC)CC(C)(C)COC(=O)[C@@H]4CCCN(N4)C3=O)C(C)C)CC2)C1 (atropisomer, axis not shown) [Example A394] | < 0.01 | 0.01 to 0.1 | 0.1 to 1 | 0.1 to 1 | 0.1 to 1 | 0.1 to 1 | 0.01 to 0.1
C=CC(=O)N1CCN(C(=O)N(C)[C@H](C(=O)N[C@H]2Cc3nc(cs3)-c3ccc4c(c3)c(c(-c3cccnc3[C@H](C)OC)n4CC)CC(C)(C)COC(=O)[C@@H]3CCCN(N3)C2=O)C(C)C)CC12CC2 (atropisomer, axis not shown) [Example A417] | 0.01 to 0.1 | 0.01 to 0.1 | 0.1 to 1 | 0.1 to 1 | 0.1 to 1 | 0.01 to 0.1 | 0.01 to 0.1
CCn1c(-c2cccnc2[C@H](C)OC)c2c3cc(ccc31)-c1csc(n1)C[C@H](NC(=O)CCOC1CN(C(=O)C#CC(C)(C)N(C)C)C1)C(=O)N1CCC[C@H](N1)C(=O)OCC(C)(C)C2 (atropisomer, axis not shown) [Example A427, 3-((1-(4-(dimethylamino)-4-methylpent-2-ynoyl)azetidin-3-yl)oxy)-N-((6^3S,4S,Z)-1^1-ethyl-1^2-(2-((S)-1-methoxyethyl)pyridin-3-yl)-10,10-dimethyl-5,7-dioxo-6^1,6^2,6^3,6^4,6^5,6^6-hexahydro-1^1H-8-oxa-2(4,2)-thiazola-1(5,3)-indola-6(1,3)-pyridazinacycloundecaphane-4-yl)propanamide] | < 0.01 | < 0.01 | 1 to 10 | > 10 | 1 to 10 | > 10 | 1 to 10
C=CC(=O)N1CC[C@H](C(=O)N(C)[C@H](C(=O)N[C@H]2Cc3cccc(c3)-c3ccc4c(c3)c(c(-c3cc5c(nc3[C@H](C)OC)CCN(C)C5)n4CC)CC(C)(C)COC(=O)[C@@H]3CCCN(N3)C2=O)C(C)C)C1 (atropisomer, axis not shown) [Example A461] | < 0.01 | 0.1 to 1 | 1 to 10 | > 10 | 1 to 10 | 1 to 10 | 1 to 10
C=CC(=O)N(C)C1CN(C(=O)N(C)[C@H](C(=O)N[C@H]2Cc3nc(cs3)-c3ccc4c(c3)c(c(-c3cccnc3[C@H](C)OC)n4CC)CC(C)(C)COC(=O)[C@@H]3CCCN(N3)C2=O)C(C)C)C1 (atropisomer, axis not shown) [Example A463] | < 0.01 | 0.01 to 0.1 | 0.1 to 1 | 1 to 10 | 0.1 to 1 | 0.1 to 1 | 0.01 to 0.1
C=CC(=O)N1CC[C@H](C(=O)N(C)[C@H](C(=O)N[C@H]2Cc3nc(cs3)-c3ccc4c(c3)c(c(-c3cc5c(nc3[C@H](C)OC)CCN(C)C5)n4CC)CC(C)(C)COC(=O)[C@@H]3CCCN(N3)C2=O)C(C)C)C1 (atropisomer, axis not shown) [Example A472] | < 0.01 | 0.1 to 1 | 1 to 10 | > 10 | 1 to 10 | 1 to 10 | 1 to 10
C=CC(=O)N1CC[C@H](C(=O)N(C)[C@H](C(=O)N[C@H]2Cc3cc(C)cc(c3)-c3ccc4c(c3)c(c(-c3cccnc3[C@H](C)OC)n4CC)CC(C)(C)COC(=O)[C@@H]3CCCN(N3)C2=O)C(C)C)C1 (atropisomer, axis not shown) [Example A498] | 0.01 to 0.1 | 0.1 to 1 | 1 to 10 | > 10 | 1 to 10 | 1 to 10 | 1 to 10
C=CC(=O)N1CC[C@H](C(=O)N(C)[C@H](C(=O)N[C@H]2Cc3cccc(c3)-c3ccc4c(c3)c(c(-c3cccnc3[C@H](C)OC)n4CC#CC)CC(C)(C)COC(=O)[C@@H]3CCCN(N3)C2=O)C(C)C)C1 (atropisomer, axis not shown) [Example A531] | 0.01 to 0.1 | 0.1 to 1 | 1 to 10 | > 10 | 1 to 10 | 1 to 10 | 1 to 10
C=CC(=O)N1CCOC2(C1)CN(C(=O)N(C)[C@H](C(=O)N[C@H]1Cc3cccc(c3)-c3ccc4c(c3)c(c(-c3cccnc3[C@H](C)OC)n4CC(F)(F)F)CC(C)(C)COC(=O)[C@@H]3CCCN(N3)C1=O)C(C)C)C2 (atropisomer, axis not shown) [Example A538] | 0.01 to 0.1 | 0.01 to 0.1 | 0.1 to 1 | 1 to 10 | 0.1 to 1 | 0.1 to 1 | 0.1 to 1
CO[C@@H](C)c1ncccc1-c1c2c3cc(ccc3n1CC(F)(F)F)-c1cccc(c1)C[C@H](NC(=O)[C@H](C(C)C)N(C)C(=O)N1CCC3(CC1)CN(C(=O)/C=C/CN(C)C)C3)C(=O)N1CCC[C@H](N1)C(=O)OCC(C)(C)C2 (atropisomer, axis not shown) [Example A555] | 0.01 to 0.1 | 0.1 to 1 | 0.1 to 1 | 0.1 to 1 | 0.1 to 1 | 0.1 to 1 | 0.1 to 1
CCn1c(-c2cccnc2[C@H](C)OC)c2c3cc(ccc31)-c1cccc(c1)C[C@H](NC(=O)[C@H](C(C)C)N1CC[C@@]3(CCN(C(=O)C#C[C@H]4COCCN4C4COC4)C3)C1=O)C(=O)N1CCC[C@H](N1)C(=O)OCC(C)(C)C2 (atropisomer, axis not shown) [Example A567] | < 0.01 | 0.01 to 0.1 | 1 to 10 | 1 to 10 | 1 to 10 | 1 to 10 | 1 to 10
C=CC(=O)N1CCO[C@H]2CN(C(=O)N(C)[C@H](C(=O)N[C@H]3Cc4coc(n4)-c4ccc5c(c4)c(c(-c4cccnc4[C@H](C)OC)n5CC(F)(F)F)CC(C)(C)COC(=O)[C@@H]4CCCN(N4)C3=O)C(C)C)C[C@H]21 (atropisomer, axis not shown) [Example A574] | 0.01 to 0.1 | 0.1 to 1 | 1 to 10 | > 10 | 1 to 10 | 1 to 10 | 0.1 to 1
C=CC(=O)N1C[C@@H](N(C)C(=O)N(C)[C@H](C(=O)N[C@H]2Cc3nc(cs3)-c3ccc4c(c3)c(c(-c3cccnc3[C@H](C)OC)n4CC)CC(C)(C)COC(=O)[C@@H]3CCCN(N3)C2=O)C(C)C)[C@@H](C)C1 (atropisomer, axis not shown) [Example A583] | 0.01 to 0.1 | 0.1 to 1 | 0.1 to 1 | 1 to 10 | 0.1 to 1 | 0.1 to 1 | 0.1 to 1
C=CC(=O)N1C[C@H](C)N(C(=O)N(C)[C@H](C(=O)N[C@H]2Cc3nc(cs3)-c3ccc4c(c3)c(c(-c3cccnc3[C@H](C)OC)n4CC)CC(C)(C)COC(=O)[C@@H]3CCCN(N3)C2=O)C(C)C)CC12CC2 (atropisomer, axis not shown) [Example A586] | 0.01 to 0.1 | 0.1 to 1 | 0.1 to 1 | 1 to 10 | 0.1 to 1 | 0.1 to 1 | 0.1 to 1
C=CC(=O)N1C[C@@H](C)[C@H](N(C)C(=O)N(C)[C@H](C(=O)N[C@H]2Cc3nc(cs3)-c3ccc4c(c3)c(c(-c3cccnc3[C@H](C)OC)n4CC)CC(C)(C)COC(=O)[C@@H]3CCCN(N3)C2=O)C(C)C)C1 (atropisomer, axis not shown) [Example A588] | 0.01 to 0.1 | 0.1 to 1 | 1 to 10 | 1 to 10 | 1 to 10 | 1 to 10 | 0.1 to 1
